Data on three compounds can be found in patent US20110112104A1, “TRICYCLIC COMPOUNDS, A PROCESS FOR THEIR PREPARATION AND PHARMACEUTICAL COMPOSITIONS CONTAINING THEM” (LES LABORATOIRES SERVIER, priority 2008, published 2011).

In the test the test system is caspase 3. As to the kind of experiment: Induction of caspase activity in vitro. The test is classed as cell-based, human. To be noted: H146 small-cell lung carcinoma cells, compound at 10 μM, 6 hours exposure. The protocol:
This study was carried out on the following human tumour cell line: • 1 small-cell lung carcinoma, H146. This cell line is cultured in an incubator at 37° C. in the presence of 5% CO2. More specifically, the H146 cells are cultured in complete RPMI 1640 medium containing 10% foetal calf serum, 2 mM glutamine, 50 units/ml of penicillin, 50 μg/ml of streptomycin and 10 mM Hepes buffer, pH=7.4. The cells are distributed onto 6-well plates and exposed to the test compounds for 6 hours. They are then collected and lysed and the caspase activity is measured in the cell lysates. This enzymatic measurement is carried out by measuring the appearance of a fluorigenic cleavage product (Pharmacia).
For `CN(C)CC[C@H](CSc1ccccc1)Nc1ccc(S(=O)(=O)NC(=O)c2cnc3c(c2)CC2CN(Cc4ccccc4-c4ccc(Cl)cc4)CCN32)cc1[N+](=O)[O-].Cl.Cl.Cl` (stereo partly drawn) [Example 3, N-({7-[(4′-Chloro[1,1′-biphenyl]-2-yl)methyl]-5,5a,6,7,8,9-hexahydropyrido[3′,2′:4,5]pyrrolo[1,2-a]pyrazin-3-yl}carbonyl)-4-({(1R)-3-(dimethylamino)-1-[(phenylsulphanyl)methyl]propyl}amino)-3-nitro-benzenesulphonamide trihydrochloride], the “caspase 3 activity in cell lysates” value is 17776 RFU (Relative Fluorescence Units).
Under `CN(C)CC[C@H](CSc1ccccc1)Nc1ccc(S(=O)(=O)NC(=O)c2ccc3c(n2)CC2CN(Cc4ccccc4-c4ccc(Cl)cc4)CCN32)cc1[N+](=O)[O-].Cl.Cl` (stereo partly drawn) [Example 2, N-({8-[(4′-Chloro[1,1′-biphenyl]-2-yl)methyl]-6,7,8,9,9a,10-hexahydropyrido[2′,3′:4,5]pyrrolo[1,2-a]pyrazin-2-yl}carbonyl)-4-({(1R)-3-(dimethylamino)-1-[(phenylsulphanyl)methyl]propyl}amino)-3-nitro-benzenesulphonamide dihydrochloride] stands 9948 RFU (Relative Fluorescence Units); under `CN(C)CC[C@H](CSc1ccccc1)Nc1ccc(S(=O)(=O)NC(=O)c2cc3c(cn2)N2CCN(Cc4ccccc4-c4ccc(Cl)cc4)CC2C3)cc1[N+](=O)[O-].Cl.Cl.Cl` (stereo partly drawn) [Example 1, N-({2-[(4′-Chloro[1,1′-biphenyl]-2-yl)methyl]-1,2,3,4,10,10a-hexahydropyrido[4′,3′:4,5]pyrrolo[1,2-a]pyrazin-8-yl}carbonyl)-4-({(1R)-3-(dimethylamino)-1-[(phenylsulphanyl)methyl]propyl}amino)-3-nitro-benzenesulphonamide trihydrochloride], 15395 RFU (Relative Fluorescence Units).
